Tests used:
Format in all cases: biochemical
[1] = target: T1, human VEGFR-2 (Val789-Val1356) (Homo sapiens, UniProt P35968); test: KDR kinase assay (HTScan VEGFR-2 kit, DELFIA); conditions: for inhibition at 0.1 µM: read-out: KDR 0.1 μM, % of inhibition relative to control; for inhibition at 1 µM: read-out: KDR 1 μM, % of inhibition relative to control
T1 construct: human VEGFR-2 (Val789-Val1356); GST (N); purchased Cell Signaling Technology; host or cells: baculovirus expression system
Method in brief: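 GST-tagged human VEGFR-2 (Val789-Val1356) from baculovirus, with 1.5 μM biotinylated gastrin precursor peptide and 20 μM ATP in HEPES pH 7.5, Mg/Mn, vanadate, DTT, 1% DMSO. Pre-incubation 5 min, reaction 30 min at room temperature; phosphorylation read by DELFIA.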

[2] = target: T2, human FLT-3 (Arg571-Ser993) (Homo sapiens, UniProt P36888); test: FLT-3 kinase assay (HTScan kit, DELFIA); conditions: for inhibition at 0.1 µM: read-out: FLT-3 0.1 μM, % of inhibition relative to control; for inhibition at 1 µM: read-out: FLT-3 1 μM, % of inhibition relative to control
T2 construct: human FLT-3 (Arg571-Ser993); GST (N); purchased Cell Signaling Technology; host or cells: baculovirus expression system
T2 sequence (P36888 571-993): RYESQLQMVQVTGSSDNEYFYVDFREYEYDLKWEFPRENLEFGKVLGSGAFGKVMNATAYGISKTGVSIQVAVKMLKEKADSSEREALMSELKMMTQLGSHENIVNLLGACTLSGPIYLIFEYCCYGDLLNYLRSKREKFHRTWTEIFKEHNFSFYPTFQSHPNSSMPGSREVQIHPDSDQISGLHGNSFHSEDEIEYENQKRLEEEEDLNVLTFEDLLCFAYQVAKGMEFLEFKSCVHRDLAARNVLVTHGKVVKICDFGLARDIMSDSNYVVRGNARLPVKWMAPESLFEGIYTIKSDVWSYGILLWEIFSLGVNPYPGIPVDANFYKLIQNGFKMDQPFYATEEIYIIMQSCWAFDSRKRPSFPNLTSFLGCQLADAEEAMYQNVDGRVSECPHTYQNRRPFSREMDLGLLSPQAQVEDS
Method in brief: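 GST-tagged human FLT-3 (Arg571-Ser993, baculovirus-expressed) phosphorylated 1.5 μM biotinylated gastrin precursor peptide with 20 μM ATP in HEPES pH 7.5, Mg/Mn buffer and 1% DMSO. After 5 min preincubation, the reaction ran 30 min at room temperature. Phosphorylation was read by DELFIA.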

[3] = target: T3, human EGFR (His672-Ala1210) (Homo sapiens, UniProt P00533); test: EGFR kinase assay (HTScan kit, DELFIA); conditions: for inhibition at 0.1 µM: read-out: EGFR 0.1 μM, % of inhibition relative to control; for inhibition at 1 µM: read-out: EGFR 1 μM, % of inhibition relative to control
T3 construct: human EGFR (His672-Ala1210); GST (N); purchased Cell Signaling Technology; host or cells: baculovirus expression system
T3 sequence (P00533 672-1210): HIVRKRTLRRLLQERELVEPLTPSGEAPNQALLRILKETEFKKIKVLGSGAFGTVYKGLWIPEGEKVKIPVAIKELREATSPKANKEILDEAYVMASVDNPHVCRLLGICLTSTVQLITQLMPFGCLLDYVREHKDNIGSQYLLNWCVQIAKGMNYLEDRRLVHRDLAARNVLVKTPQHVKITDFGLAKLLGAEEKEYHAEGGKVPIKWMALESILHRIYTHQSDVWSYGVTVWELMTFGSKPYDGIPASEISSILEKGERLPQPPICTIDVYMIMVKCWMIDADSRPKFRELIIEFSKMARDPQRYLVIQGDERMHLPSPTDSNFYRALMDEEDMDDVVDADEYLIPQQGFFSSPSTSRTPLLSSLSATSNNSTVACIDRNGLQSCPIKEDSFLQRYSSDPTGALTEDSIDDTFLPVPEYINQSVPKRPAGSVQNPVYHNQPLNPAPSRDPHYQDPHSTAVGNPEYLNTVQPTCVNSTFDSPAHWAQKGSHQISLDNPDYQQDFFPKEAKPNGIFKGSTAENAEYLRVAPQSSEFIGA
Description: Compounds 1-100 were treated for their efficacy in inhibiting activities of FLT-3, c-KIT, KDR/Flk-1, PDGFR-beta, EGFR, and PKC kinases by biochemical DELFIA (Dissociation Enhanced Lanthanide FIA) assays according to the procedure described below. The assays were conducted by, Division of Cell Engineering, Biomedical Engineering Research Laboratories, Industrial Technology Research Institute, Bldg. 53, 195, sec. 4, Chung Hsing Rd. Chutung, Hsinchu, Taiwan 310, R.O.C.
The EGFR assay was conducted following the protocol described in Protocol for HTScan® EGFR Kinase Assay Kit (Cell Signaling Technology®). The assay was conducted under the following conditions: EGFR source: The GST-kinase fusion protein was produced using a baculovirus expression system with a construct expressing human EGFR (His672-Ala1210) (GenBank Accession No. NM_005228) with an amino-terminal GST tag, substrate: 1.5 μM This biotinylated peptide contains the residues surrounding Tyr-66 of PTP1B, vehicle: 1% DMSO, pre-incubation time/temperature: 5 minutes at room temperature, incubation time/temperature: 30 minutes at room temperature, incubation buffer: 60 mM HEPES pH 7.5, 5 mM MgCl2, 5 mM MnCl2, 3 μM Na3VO4, 1.25 mM DTT, 20 μM ATP, and quantitative method: DELFIA® Assay.

[4] = target: T4, human c-KIT (Thr544-Val976) (Homo sapiens, UniProt P10721); test: c-KIT kinase assay (HTScan kit, DELFIA); conditions: for inhibition at 0.1 µM: read-out: c-KIT 0.1 μM, % of inhibition relative to control; for inhibition at 1 µM: read-out: c-KIT 1 μM, % of inhibition relative to control
T4 construct: human c-KIT (Thr544-Val976); GST (N); purchased Cell Signaling Technology; host or cells: baculovirus expression system
T4 sequence (P10721 544-976): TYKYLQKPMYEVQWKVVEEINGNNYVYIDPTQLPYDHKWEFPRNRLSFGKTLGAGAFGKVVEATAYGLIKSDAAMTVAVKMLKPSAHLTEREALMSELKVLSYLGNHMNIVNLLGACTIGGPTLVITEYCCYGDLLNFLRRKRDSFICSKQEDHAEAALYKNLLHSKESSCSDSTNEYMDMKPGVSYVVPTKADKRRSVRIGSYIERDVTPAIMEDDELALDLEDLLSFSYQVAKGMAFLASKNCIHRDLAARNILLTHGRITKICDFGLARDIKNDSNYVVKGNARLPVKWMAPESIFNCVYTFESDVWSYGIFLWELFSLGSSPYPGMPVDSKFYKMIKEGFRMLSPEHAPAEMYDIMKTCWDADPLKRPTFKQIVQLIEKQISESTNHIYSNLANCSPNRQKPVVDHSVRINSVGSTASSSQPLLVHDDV
Method in brief: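 GST-tagged human c-KIT (Thr544-Val976) from baculovirus, with 1.5 μM biotinylated KDR Tyr-996 peptide and 20 μM ATP in HEPES pH 7.5 buffer containing Mg2+/Mn2+ and 1% DMSO. Enzyme and compound pre-incubated 5 min, reaction run 30 min at room temperature; phosphorylation detected by DELFIA.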

T1 sequence (P35968 789-1356): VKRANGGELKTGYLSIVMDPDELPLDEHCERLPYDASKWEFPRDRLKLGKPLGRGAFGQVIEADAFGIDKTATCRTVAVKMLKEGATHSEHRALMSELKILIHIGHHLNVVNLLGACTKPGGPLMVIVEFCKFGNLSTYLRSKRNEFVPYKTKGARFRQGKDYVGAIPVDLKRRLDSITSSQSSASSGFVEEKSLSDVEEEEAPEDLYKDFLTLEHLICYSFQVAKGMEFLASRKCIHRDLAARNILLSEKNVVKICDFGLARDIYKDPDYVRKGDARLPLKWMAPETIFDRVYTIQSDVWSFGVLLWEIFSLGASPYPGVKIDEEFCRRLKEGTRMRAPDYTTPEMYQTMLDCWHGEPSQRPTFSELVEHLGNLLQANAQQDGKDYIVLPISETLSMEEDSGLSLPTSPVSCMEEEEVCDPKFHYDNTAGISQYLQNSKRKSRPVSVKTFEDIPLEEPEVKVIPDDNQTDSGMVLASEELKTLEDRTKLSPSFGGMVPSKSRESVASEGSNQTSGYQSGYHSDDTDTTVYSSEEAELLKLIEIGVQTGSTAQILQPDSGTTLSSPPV

| SMILES | inhibition at 0.1 µM ([1]; compound at 0.1 μM) [%] | inhibition at 1 µM ([1]; compound at 1 μM) [%] | inhibition at 0.1 µM ([2]; compound at 0.1 μM) [%] | inhibition at 1 µM ([2]; compound at 1 μM) [%] | inhibition at 0.1 µM ([3]; compound at 0.1 μM) [%] | inhibition at 1 µM ([3]; compound at 1 μM) [%] | inhibition at 0.1 µM ([4]; compound at 0.1 μM) [%] | inhibition at 1 µM ([4]; compound at 1 μM) [%] | KDR 0.1 μM, % of inhibition relative to control ([1]; compound at 0.1 μM) [%] | KDR 1 μM, % of inhibition relative to control ([1]; compound at 1 μM) [%] | FLT-3 0.1 μM, % of inhibition relative to control ([2]; compound at 0.1 μM) [%] | FLT-3 1 μM, % of inhibition relative to control ([2]; compound at 1 μM) [%] | EGFR 0.1 μM, % of inhibition relative to control ([3]; compound at 0.1 μM) [%] | EGFR 1 μM, % of inhibition relative to control ([3]; compound at 1 μM) [%] | c-KIT 0.1 μM, % of inhibition relative to control ([4]; compound at 0.1 μM) [%] | c-KIT 1 μM, % of inhibition relative to control ([4]; compound at 1 μM) [%] | IC50 ([2]; read-out: FLT-3 kinase inhibition (IC50)) [nM] | IC50 ([4]; read-out: c-KIT kinase inhibition (IC50)) [nM] |
| --- | --- | --- | --- | --- | --- | --- | --- | --- | --- | --- | --- | --- | --- | --- | --- | --- | --- | --- |
| O=C1Nc2ccc(F)cc2/C1=C/c1cc(Cl)c2cccccc1-2 [Compound 46, 3-(3-Chloro-azulen-1-ylmethylene)-5-fluoro-1,3-dihydro-indol-2-one] | 10 | 33.2 | 45.9 | 73.5 | 11 | 18.5 | 70.9 | 70.9 |  |  |  |  |  |  |  |  |  |  |
| CN(C)S(=O)(=O)c1ccc2c(c1)/C(=C/c1ccc3cccccc1-3)C(=O)N2 [Compound 50, (3Z)-3-(((3aZ,5Z,7Z)-azulen-1-yl)methylene)-5-(N,N-dimethylsulfonyl)indolin-2-one] |  |  |  |  |  |  |  |  | 22.3 | 25.8 | 4.0 | 29.6 | 7.9 | 10.4 | 19.5 | 19.5 |  |  |
| O=C1Nc2ccc(F)cc2/C1=C\c1cc(Br)c2cccccc1-2 [Compound 51, 3-(3-Bromo-azulen-1-ylmethylene)-5-fluoro-1,3-dihydro-indol-2-one] |  | 26.4 | 38.4 | 82.6 |  | 11.5 | 73.9 | 73.9 |  |  |  |  |  |  |  |  |  |  |
| O=C1Nc2ccccc2/C1=C/c1cc2cccccc-2c1 [Compound 33, 3-Azulen-2-ylmethylene-1,3-dihydro-indol-2-one] | 24.6 | 50.8 | 50.5 | 85.6 | 15.2 | 13 | 63.1 | 63.1 |  |  |  |  |  |  |  |  |  |  |
| Cc1cc(/C=C2/C(=O)Nc3ccc(F)cc32)c2cccccc1-2 [Compound 38, 5-Fluoro-3-(3-methyl-azulen-1-ylmethylene)-1,3-dihydro-indol-2-one] | 2.3 | 8.4 | 40.5 | 79 | 0.8 | 1.7 | 72.6 | 72.6 |  |  |  |  |  |  |  |  |  |  |
| O=C1Nc2ccc(F)cc2/C1=C\c1cc2cccccc-2c1 [Compound 40, 3-Azulen-2-ylmethylene-5-fluoro-1,3-dihydro-indol-2-one] | 13.8 | 22.2 | 84.3 | 95.5 | 10 | 17.3 | 80 | 80 |  |  |  |  |  |  |  |  |  |  |
| O=C1Nc2ccc(F)cc2/C1=C/c1cc2cccccc-2c1 [Compound 41, 3-Azulen-2-ylmethylene-5-fluoro-1,3-dihydro-indol-2-one] | 25.2 | 30.4 | 74.7 | 87.6 | 6.4 | 9.4 | 76.6 | 76.6 |  |  |  |  |  |  |  |  | 43.4 | 6 |
| COc1ccc2c(c1)/C(=C\c1ccc3cccccc1-3)C(=O)N2 [Compound 43, 3-Azulen-1-ylmethylene-5-methoxy-1,3-dihydro-indol-2-one] |  | 6.8 |  | 24.3 | 6.2 | 11.9 | 14.7 | 14.7 |  |  |  |  |  |  |  |  |  |  |
| Cc1ccc2c(c1)/C(=C/c1ccc3cccccc1-3)C(=O)N2 [Compound 48, 3-Azulen-1-ylmethylene-5-methyl-1,3-dihydro-indol-2-one] |  | 13.8 | 4.5 | 61.6 | 7.8 | 10.4 | 32.2 | 32.2 |  |  |  |  |  |  |  |  |  |  |
| O=C1Nc2ccccc2/C1=C\c1cc2cccccc-2c1 [Compound 32, 3-Azulen-2-ylmethylene-1,3-dihydro-indol-2-one] |  | 6.2 | 48.5 | 89.5 | 7.7 | 13.7 | 60.3 | 60.3 |  |  |  |  |  |  |  |  |  |  |
| Cc1cc(/C=C2/C(=O)Nc3ccccc32)c2cccccc1-2 [Compound 36, 3-(3-Methyl-azulen-1-ylmethylene)-1,3-dihydro-indol-2-one] |  | 0.3 |  | 39.3 | 9.6 | 10.9 | 49.2 | 49.2 |  |  |  |  |  |  |  |  |  |  |
| COc1ccc2c(c1)/C(=C/c1ccc3cccccc1-3)C(=O)N2 [Compound 44, 3-Azulen-1-ylmethylene-5-methoxy-1,3-dihydro-indol-2-one] |  | 38.4 | 5.7 | 8.2 | 4.7 | 9.3 | 7.2 | 7.2 |  |  |  |  |  |  |  |  |  |  |
| O=C1Nc2c(Cl)cccc2/C1=C/c1ccc2cccccc1-2 [Compound 42, 3-Azulen-1-ylmethylene-7-chloro-1,3-dihydro-indol-2-one] | 6 | 13.6 | 8.9 | 24.3 | 8.8 | 10.8 | 8.3 | 8.3 |  |  |  |  |  |  |  |  |  |  |

Source: patent publication US7714146B2, “Azulene-oxindole compounds as multiple-kinase inhibitors and useful as anticancer agents” (Industrial Technology Research Institute, priority 2006, dated 2010)
